Laboratory results published in US20080026996A1, “Selective Vpac2 Receptor Reptide Agonists” (ELI LILLY AND COMPANY, priority 2004, published 2008).
Where a SMILES comes first, the peptide text is derived from it. Where no end group is shown, it is not given here. [ ]: non-standard residue; d: D form. The star is where a group is joined. hArg = N=C(N)NCCCC[C@H](N)C(=O)O; Orn = NCCC[C@H](N)C(=O)O; Hexanoyl = CCCCCC(=O)*; Aib = CC(C)(N)C(=O)O; Mpa = O=C(O)CCS

Tests used:
[1] = Rat serum stability studies (remaining active peptide by DiscoveRx cAMP on CHO-VPAC2 cells); assay type: in vitro ADME
Description: Store the aliquot with aprotinin at 4° C. Store the aliquot without aprotinin at 37° C. […] […] Incubate in room temperature for 30 minutes. Remove the supernatant. […] Incubate on the shaker (300 rpm) for 1 hour. Proceed as normal with the DiscoveRx kit. Include cAMP standards in column 12. Determine EC50 values from the cAMP assay data.

human VPAC1 = target: T1, human VPAC1 (Homo sapiens, UniProt P32241); experiment: Filter binding assay, membranes of cells transiently transfected with human VPAC1, 125I-labeled VIP tracer (Table 2); design: expressed in transfected cells; details: read-out: Human VPAC1 Receptor Binding
T1 sequence (P32241 31-457): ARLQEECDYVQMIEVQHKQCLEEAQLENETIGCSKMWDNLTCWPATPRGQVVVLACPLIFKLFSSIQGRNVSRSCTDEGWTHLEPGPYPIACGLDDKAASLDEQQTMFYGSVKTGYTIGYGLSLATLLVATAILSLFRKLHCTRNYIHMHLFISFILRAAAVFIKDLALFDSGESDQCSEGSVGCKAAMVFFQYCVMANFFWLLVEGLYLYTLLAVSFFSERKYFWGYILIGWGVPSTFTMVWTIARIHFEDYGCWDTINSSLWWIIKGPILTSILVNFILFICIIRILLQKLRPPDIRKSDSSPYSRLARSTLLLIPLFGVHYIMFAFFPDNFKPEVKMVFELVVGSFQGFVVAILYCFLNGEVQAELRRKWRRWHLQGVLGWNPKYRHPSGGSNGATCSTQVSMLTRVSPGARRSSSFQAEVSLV
Summary of the method: (§1)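 Radioligand displacement was measured with 2.5 μg membrane protein per well and roughly 40000 cpm of iodinated tracer. After a 1-hour incubation, bound and free label were separated on BSA-blocked glass-fibre filters and quantified by scintillation.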

human VPAC2 [2] = target: T2, human VPAC2 (Homo sapiens, UniProt P41587); experiment: Filter binding assay, membranes of stable VPAC2 cell line, 125I-labeled VIP tracer (Table 2); details: read-out: Human VPAC2 Receptor Binding
T2 construct: expressed in transfected cells
T2 sequence (P41587 24-438): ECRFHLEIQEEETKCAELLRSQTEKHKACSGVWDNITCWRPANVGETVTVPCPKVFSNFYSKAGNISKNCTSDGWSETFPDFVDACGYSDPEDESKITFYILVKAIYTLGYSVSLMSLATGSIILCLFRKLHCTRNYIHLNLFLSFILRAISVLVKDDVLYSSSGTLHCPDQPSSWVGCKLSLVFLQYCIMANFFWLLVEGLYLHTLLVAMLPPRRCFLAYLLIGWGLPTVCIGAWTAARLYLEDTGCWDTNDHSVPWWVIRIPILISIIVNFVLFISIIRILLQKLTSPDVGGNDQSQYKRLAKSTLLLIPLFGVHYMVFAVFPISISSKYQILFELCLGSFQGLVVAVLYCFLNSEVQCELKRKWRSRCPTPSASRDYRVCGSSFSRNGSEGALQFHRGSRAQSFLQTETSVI
Summary of the method: as §1

human VPAC2 [3] = target: T2, human VPAC2; experiment: Alpha screen cAMP in vitro potency, human VPAC2 receptor; assay type: cell-based; details: cAMP generation; single result from two analyses performed in a single run; read-out: Human VPAC2 Receptor: Alpha Screen EC50
Summary of the method: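 Under reduced light, acceptor beads accompany the stimuli during a 60-minute incubation of cells in stimulation buffer (50,000 per well point). Donor beads go in with lysis buffer for a further 60–120 minutes, and the resulting AlphaScreen signal indicates cAMP levels.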

Compound	Rat Serum Stability (estimated purity in % after 18 hours) [1]	IC50 (human VPAC1)	IC50 (human VPAC2 [2])	EC50 (human VPAC2 [3])
Hexanoyl-HSDAVFTDNYTRL[hArg][Aib]QVAA[Aib]KYLQSIKNKRYGGPSSGAPPPS [Agonist P316]	15.06%	> 3000 nM	0.38 nM	0.3 nM
Hexanoyl-HSDAVFTANYTRLRKQVAAKKYLQSIKNKRYGGPSSGAPPPS [Agonist P158]	0.32%	25.7 nM	0.21 nM	0.11 nM
Hexanoyl-HSDAVFTDNYTRLLAKLAAQKYLQSIKNKRYGGPSSGAPPPS [Agonist P197]	5.68%	447 nM	0.31 nM	0.09 nM
Hexanoyl-HSDAVFTDNYTRLRKQVAAKLYLQSIKNKRYGGPSSGAPPPS [Agonist P185]	0.27%	358 nM	0.41 nM	0.18 nM
Hexanoyl-HSDAVFTDNYTRLR[Aib]QVAA[Aib]AYLQSIKNKRYGGPSSGAPPPS [Agonist P341]	12.82%	> 3000 nM	2.39 nM	0.38 nM
CCCCCC(=O)N[C@@H](Cc1c[nH]cn1)C(=O)N[C@@H](CO)C(=O)N[C@@H](CC(=O)O)C(=O)N[C@@H](C)C(=O)N[C@H](C(=O)N[C@@H](Cc1ccccc1)C(=O)N[C@H](C(=O)N[C@@H](CC(=O)O)C(=O)N[C@@H](CC(N)=O)C(=O)N[C@@H](Cc1ccc(O)cc1)C(=O)N[C@H](C(=O)N[C@@H](CCCN)C(=O)N[C@@H](CC(C)C)C(=O)N[C@@H](CCCNC(=N)N)C(=O)NC(C)(C)C(=O)N[C@@H](CCC(N)=O)C(=O)N[C@H](C(=O)N[C@@H](C)C(=O)N[C@@H](C)C(=O)NC(C)(C)C(=O)N[C@@H](CCCCN)C(=O)N[C@@H](Cc1ccc(O)cc1)C(=O)N[C@@H](CC(C)C)C(=O)N[C@@H](CCC(N)=O)C(=O)N[C@@H](CO)C(=O)N[C@H](C(=O)N[C@@H](CCCN)C(=O)N[C@@H](CC(N)=O)C(=O)N[C@@H](CCCN)C(=O)NCC(=O)NCC(=O)N1CCC[C@H]1C(=O)N[C@@H](CO)C(=O)N[C@@H](CO)C(=O)NCC(=O)N[C@@H](C)C(=O)N1CCC[C@H]1C(=O)N1CCC[C@H]1C(=O)N1CCC[C@H]1C(=O)N[C@@H](CO)C(=O)O)[C@@H](C)CC)[C@@H](C)CC)[C@@H](C)O)[C@@H](C)O)C(C)C [Agonist P365] (Hexanoyl-HSDAVFTDNYT[Orn]LR[Aib]QIAA[Aib]KYLQSI[Orn]N[Orn]GGPSSGAPPPS-OH; C-terminus assumed)	91.13%			0.13 nM
CCCCCC(=O)N[C@@H](Cc1c[nH]cn1)C(=O)N[C@@H](CO)C(=O)N[C@@H](CC(=O)O)C(=O)N[C@@H](C)C(=O)N[C@H](C(=O)N[C@@H](Cc1ccccc1)C(=O)N[C@H](C(=O)N[C@@H](CC(=O)O)C(=O)N[C@@H](CC(N)=O)C(=O)N[C@@H](Cc1ccc(O)cc1)C(=O)N[C@H](C(=O)N[C@@H](CCCNC(=N)N)C(=O)N[C@@H](CC(C)C)C(=O)N[C@@H](CCCNC(=N)N)C(=O)N[C@@H](CCCNC(=N)N)C(=O)N[C@@H](CCC(N)=O)C(=O)N[C@H](C(=O)N[C@@H](C)C(=O)N[C@@H](C)C(=O)N[C@@H](CCCNC(=N)N)C(=O)N[C@@H](CCCCN)C(=O)N[C@@H](Cc1ccc(O)cc1)C(=O)N[C@@H](CC(C)C)C(=O)N[C@@H](CCC(N)=O)C(=O)N[C@@H](CO)C(=O)N[C@H](C(=O)N[C@@H](CCCNC(=N)N)C(=O)N[C@@H](CC(N)=O)C(=O)NCC(=O)NCC(=O)N1CCC[C@H]1C(=O)N[C@@H](CO)C(=O)N[C@@H](CO)C(=O)NCC(=O)N[C@@H](C)C(=O)N1CCC[C@H]1C(=O)N1CCC[C@H]1C(=O)N1CCC[C@H]1C(=O)N[C@@H](CO)C(=O)O)[C@@H](C)CC)C(C)C)[C@@H](C)O)[C@@H](C)O)C(C)C [Agonist P216] (Hexanoyl-HSDAVFTDNYTRLRRQVAARKYLQSIRNGGPSSGAPPPS-OH; C-terminus assumed)	0.06%			0.11 nM
Hexanoyl-HSDAVFTDNYTRLRKQVAAKKYLQSIKNKRFGGPSSGAPPPS [Agonist P203]	<0.09%		0.18 nM	0.14 nM
CCCCCC(=O)N[C@@H](Cc1c[nH]cn1)C(=O)N[C@@H](CO)C(=O)N[C@@H](CC(=O)O)C(=O)N[C@@H](C)C(=O)N[C@H](C(=O)N[C@@H](Cc1ccccc1)C(=O)N[C@H](C(=O)N[C@@H](CC(=O)O)C(=O)N[C@@H](CC(N)=O)C(=O)N[C@@H](Cc1ccc(O)cc1)C(=O)N[C@H](C(=O)N[C@@H](C)C(=O)N[C@@H](CC(C)C)C(=O)N[C@@H](CCCNC(=N)N)C(=O)NC(C)(C)C(=O)N[C@@H](CCC(N)=O)C(=O)N[C@H](C(=O)N[C@@H](C)C(=O)N[C@@H](C)C(=O)NC(C)(C)C(=O)N[C@@H](CCCCN)C(=O)N[C@@H](Cc1ccc(O)cc1)C(=O)N[C@@H](CC(C)C)C(=O)N[C@@H](CCC(N)=O)C(=O)N[C@@H](CO)C(=O)N[C@H](C(=O)N[C@@H](CCCN)C(=O)N[C@@H](CC(N)=O)C(=O)N[C@@H](CCCN)C(=O)NCC(=O)NCC(=O)N1CCC[C@H]1C(=O)N[C@@H](CO)C(=O)N[C@@H](CO)C(=O)NCC(=O)N[C@@H](C)C(=O)N1CCC[C@H]1C(=O)N1CCC[C@H]1C(=O)N1CCC[C@H]1C(=O)N[C@@H](CO)C(=O)O)[C@@H](C)CC)C(C)C)[C@@H](C)O)[C@@H](C)O)C(C)C [Agonist P366]	92.00%			2.6 nM
CCCCCC(=O)N[C@@H](Cc1c[nH]cn1)C(=O)N[C@@H](CO)C(=O)N[C@@H](CC(=O)O)C(=O)N[C@@H](C)C(=O)N[C@H](C(=O)N[C@@H](Cc1ccccc1)C(=O)N[C@H](C(=O)N[C@@H](CC(=O)O)C(=O)N[C@@H](CC(N)=O)C(=O)N[C@@H](Cc1ccc(O)cc1)C(=O)N[C@H](C(=O)N[C@@H](CCCNC(=N)N)C(=O)N[C@@H](CC(C)C)C(=O)N[C@@H](CCCNC(=N)N)C(=O)N[C@@H](CCCNC(=N)N)C(=O)N[C@@H](CCC(N)=O)C(=O)N[C@H](C(=O)N[C@@H](C)C(=O)N[C@@H](C)C(=O)N[C@@H](CCCCN)C(=O)N[C@@H](CCCNC(=N)N)C(=O)N[C@@H](Cc1ccc(O)cc1)C(=O)N[C@@H](CC(C)C)C(=O)N[C@@H](CCC(N)=O)C(=O)N[C@@H](CO)C(=O)N[C@H](C(=O)N[C@@H](CCCNC(=N)N)C(=O)N[C@@H](CC(N)=O)C(=O)NCC(=O)NCC(=O)N1CCC[C@H]1C(=O)N[C@@H](CO)C(=O)N[C@@H](CO)C(=O)NCC(=O)N[C@@H](C)C(=O)N1CCC[C@H]1C(=O)N1CCC[C@H]1C(=O)N1CCC[C@H]1C(=O)N[C@@H](CO)C(=O)O)[C@@H](C)CC)C(C)C)[C@@H](C)O)[C@@H](C)O)C(C)C [Agonist P215] (Hexanoyl-HSDAVFTDNYTRLRRQVAAKRYLQSIRNGGPSSGAPPPS-OH; C-terminus assumed)	0.08%			0.09 nM
Hexanoyl-HSDAVFTDNYTRLRKQVAAKKYTQSIKNKRYGGPSSGAPPPS [Agonist P232]	<5.00%			1.94 nM
[Mpa]HSDAVFTDNYTRLLAKLALQKYLQSIKNKRYGGPSSGAPPPS [Agonist P205]	35.02%			1.14 nM
